The results in this text go back to patent US7968595B2, “Substituted 4-aryl-chromene as activator of caspases and inducer of apoptosis and as antivascular agent and the use thereof” (Cytovia, Inc., priority 2006, dated 2011).

Assay [1] has as its system MX1 human breast cancer tumors. Briefly: In vivo antitumor activity in MX-1 model, single agent. The arrangement: species or system mice. As for the experimental part:
(§1) MX1 human breast cancer tumors were obtained from the NCI-FCRDC and maintained as tumors in nude mice. Tumor bits were implanted with a trocar into the right mammary area of female nu/nu mice and allowed to grow to an average size of 200-250 mg, about 12 days after being implanted. Animals were randomized and assigned to study groups of 8-10 animals/group. Body weight were determined and tumor size were measured by calipers and converted to volume by the standard formula of Vol=L×W^2/2. Compound 1R was formulated in 7% PEG400/9% Tween80/84% D5W and administered IV via the tail vein at the indicated days and doses. Day 1 of the study was the first day of treatment. Survival time was the number of days for the tumor to reach 1000 mg or death, whichever occurred earliest. Median survival is the median for the group.

Assay [2] concerns SNU398. The assay can be described thus: Inhibition of cell proliferation (GI50), SNU398. The format is cell-based. The settings on record: Homo sapiens, SNU-398; Snu398 cells, 72 h, CellTiter-Glo. As for the experimental part:
(§2) Human breast cancer cells MX-1 and MDAMB435, hepatocarcinoma cells SNU398, colon cancer cells HCT116 and HeLa cells were grown and harvested as in Example 7. An aliquot of […] of cells (4.4×10^4 cells/mL) was added to a well of a 96-well microtiter plate containing 5 μL of a 10% DMSO in RPMI-1640 media solution containing 10 nM to 100 μM of R(−)-2,7,8-triamino-4-(3-bromo-4,5-dimethoxy-phenyl)-3-cyano-4H-chromene (1 nM to 10 μM final). An aliquot of 45 μL of cells was added to a well of a 96-well microtiter plate containing 5 μL of a 10% DMSO in RPMI-1640 media solution without compound as the control sample for maximal cell proliferation (LMax). The samples were mixed by agitation and then incubated at 37° C. for 72 h in a 5% CO2−95% humidity incubator. After incubation, the samples were removed from the incubator and 25 μL of CellTiter-Glo™ reagent (Promega) was added. The samples were mixed by agitation and incubated at room temperature for 10-15 min. Plates were then read using a luminescent plate reader (Model SPECTRAfluor Plus, Tecan) to give Ltest values.
(§3) Baseline for GI50 (dose for 50% inhibition of cell proliferation) of initial cell numbers was determined by adding an aliquot of 45 μL of cells or 45 μL of media, respectively, to wells of a 96-well microtiter plate containing 5 μL of a 10% DMSO in RPMI-1640 media solution. […]
Background: ATP-based viability assays read luminescence as a measure of living cells.

The subject of assay [3] is H1299. Briefly: Caspase activation assay in H1299 cells. The class given is cell-based. The settings on record: Homo sapiens, NCI-H1299, 24 h incubation, read-out: Caspase activation potency EC50 H1299. The procedure: (§4) Human breast cancer cell lines T-47D and ZR-75-1, human colon cancer cell line DLD-1 and human non-small cell lung cancer cell line H1299 were grown according to media component mixtures designated by American Type Culture Collection+10% FCS (Invitrogen Corporation), in a 5% CO2−95% humidity incubator at 37° C. T-47D and ZR-75-1 cells were maintained at a cell density between 30 and 80% confluency at a cell density of 0.1 to 0.6×10^6 cells/mL. Cells were harvested at 600×g and resuspended at 0.65×10^6 cells/mL into appropriate media+10% FCS. An aliquot of […] of cells was added to a well of a 96-well microtiter plate containing 5 μl of a 10% DMSO in RPMI-1640 media solution containing about 0.16 to 10 μM of 2,7,8-triamino-4-(3-bromo-4,5-dimethoxy-phenyl)-3-cyano-4H-chromene (1) or other test compounds (0.016 to 1 μM final). An aliquot of 45 μl of cells was added to a well of a 96-well microtiter plate containing 5 μl of a 10% DMSO in RPMI-1640 media solution without test compound as the control sample. The samples were mixed by agitation and then incubated at 37° C. for 24 h in a 5% CO2−95% humidity incubator. After incubation, the samples were removed from the incubator and 50 μl of a solution containing 20 μM of N-(Ac-DEVD)-N′-ethoxycarbonyl-R110 (SEQ ID No:1) fluorogenic substrate (Cytovia, Inc.; U.S. Pat. No. 6,335,429), 20% sucrose (Sigma), 20 mM DTT (Sigma), 200 mM NaCl (Sigma), 40 mM Na PIPES buffer pH 7.2 (Sigma), and 500 μg/ml lysolecithin (Calbiochem) was added. The samples were mixed by agitation and incubated at room temperature. Using a fluorescent plate reader (Model 1420 Wallac Instruments), an initial reading (T=0) was made about 1-2 min after addition of the substrate solution, employing excitation at 485 nm and emission at 530 nm, to determine the background fluorescence of the control sample. After the 3 h incubation, the samples were read for fluorescence as above (T=3 h).
(§5) The Relative Fluorescence Unit values (RFU) were used to calculate the sample readings as follows: RFU(T=3h)−Control RFU(T=0)=Net RFU(T=3h)
(§6) The activity of caspase cascade activation was determined by the ratio of the net RFU value for 2,7,8-triamino-4-(3-bromo-4,5-dimethoxy-phenyl)-3-cyano-4H-chromene or other test compound to that of control samples. The EC50 (nM) was determined by a sigmoidal dose-response calculation (Prism 2.0, GraphPad Software Inc.).

The test system of assay [4] is MX-1. Briefly: Inhibition of cell proliferation (GI50), MX-1. The class given is cell-based. The settings on record: Homo sapiens; MX1 cells, 72 h, CellTiter-Glo. The procedure:
as §2, §3

In assay [5] the test system is MX1 human breast cancer tumors. Briefly: In vivo antitumor activity in MX-1 model, combination with cisplatin and doxorubicin. The arrangement: species or system mice. The settings on record: 1R 40 mg/kg, IV. As for the experimental part:
as §1
Mice implanted with MX1 human breast cancer tumors were treated with compound 1R as described in EXAMPLE 11. Cisplatin was administered IP whereas doxorubicin was administered IV at the indicated doses.

The test system of assay [6] is ZR-75-1. The assay can be described thus: Caspase activation assay in ZR-75-1 cells. The format is cell-based. The settings on record: Homo sapiens, ZR751 cells, 24 h incubation, read-out: Caspase activation potency EC50 ZR751. As for the experimental part: as §4, with “After incubation, the samples were removed from the incubator and 50 μl of a solution containing 20 μM of N-(Ac-DEVD)-N′-ethoxycarbonyl-R110 (SEQ ID No:1) fluorogenic substrate (Cytovia, Inc.; U.S. Pat. No. 6,335,429), 20% sucrose (Sigma), 20 mM DTT (Sigma), 200 mM NaCl (Sigma), 40 mM Na PIPES buffer pH 7.2 (Sigma), and 500 μg/ml lysolecithin (Calbiochem) was added. The samples were mixed by agitation and incubated at room temperature.” left out
as §5, §6

Setting [7] is: day 1, 2, 3 (QD × 3), first study (cisplatin day 2).
Where [8] appears, read: day 1, 8, 15 (QW × 3), second study (cisplatin day 2, 9).
Setting [9] is: day 1, 8, 15 (QW × 3), third study (doxorubicin).

Regarding `COc1cc([C@H]2C(C#N)=C(N)Oc3c2ccc(N)c3N)cc(Br)c1OC` [Compound 1R, R(−)-2,7,8-triamino-4-(3-bromo-4,5-dimethoxy-phenyl)-3-cyano-4H-chromene], the Median survival time in assay [1] (20 mg/kg IV, once a day for days 1-3 (QD × 3)) was 19 days; in assay [1] (20 mg/kg IV, once a day for days 1-5 (QD × 5)), 46 days; in assay [1] (20 mg/kg IV, once a week, day 1, 8, 15 (QW × 3)), 27.5 days; in assay [1] (40 mg/kg IV, once a day for days 1-3 (QD × 3)), 38 days; in assay [1] (40 mg/kg IV, once a day for days 1-5 (QD × 5)) it was greater than 100 days; in assay [1] (40 mg/kg IV, once a week, day 1, 8, 15 (QW × 3)), 41 days. The Median survival time is recorded as 78 days in assay [1] (60 mg/kg IV, once a day for days 1-3 (QD × 3)) and 37.5 days in assay [1] (60 mg/kg IV, once a week, day 1, 8, 15 (QW × 3)). For the same molecule, the results for the GI50 in assay [2] and in assay [4] were 28 nM and 17 nM, respectively. Further, the EC50 amounted to 62 nM in assay [3] and 19 nM in assay [6]. Also, the Median survival is reported as 38.5 days in assay [5] (setting [7]), 35 days in assay [5] (setting [8]) and 40 days in assay [5] (setting [9]). The “Number of tumor free mice at day 91” value in assay [5] (setting [7]) is listed as 4 of 9; in assay [5] (setting [8]), 1 of 7; in assay [5] (setting [9]) it was 1 of 8.

In general, GI50 refers to the concentration at which growth is held to half of that of the control. Read a low GI50 as more potent growth inhibition. As a reminder, the EC50 is the concentration needed to bring the measured effect to its halfway point.
